{"source": "patent US12252472B1", "about": "“Barbituric acid derivatives, their preparation and use thereof as leukocyte transmigration inhibitors and for treating inflammatory diseases, autoimmune diseases and cancer” (BAR-ILAN UNIVERSITY, priority 2017, dated 2025)", "key": {"[1]": {"test_system": "DBA/1 mice", "test": "Collagen induced arthritis (CIA) model", "assay_type": "in vivo, mouse", "description": "Male DBA/lOlaHsd mice (7-8 weeks of age) were injected with CII (Type II collagen)+CFA (complete Frennd's adjuvant) emulsion on Day 0 (S.C.) to persuade collagen induced arthritis (CIA). On Day 21 the animals receive the same amount of the emulsion as a booster. Twice between Days 0 and 18 after immunization (before enrollment begins), both hind paws of all mice were measured using calipers to establish baseline values for paw thickness. On Day 22 mice were enrolled into groups when they first shown paw swelling and treatment was initiated. A working formulation of compound of Formula 2 was administered by IP injections at 15 mg/kg dose at q3w regiment. Mock treated (vehicle) control group was administered IP with the same volume and regiment as a treatment group. Administration was performed at a constant volume dosage based on individual body weight. The severity of CIA was monitored daily. The CIA scoring is on the scale of 0 to 16 (0 to 4 for each paw, adding the scores for all 4 paws). On day 43 (24 hours post last dose administration) all paws thickness was measured and mice were euthanized. All limbs from each mouse were placed in individual labeled tubes, fixed in 4% buffered formalin, paraffin embedded and sectioned. Histological score was assessed using hematoxylin and eosin (H&E) stained sections. Joints were scored for inflammation, cartilage damage, pannus formation, and bone resorption on a scale of 0 to 3 for each readout. Two-way ANOVA statistical analysis was performed."}, "[2]": {"test_system": "C57BL/6J mice", "test": "Acute toxicology in naive mice (blood counts, biochemical tests, histology)", "assay_type": "in vivo, mouse", "description": "1% methyl cellulose in DDW solution was prepared by adding 0.5 g methyl cellulose into 50 ml of DDW and stirring the solution at the lowest possible speed (without making bubbles) overnight at room temperature. Formula 2 stock solution was prepared in concertation of 20 mg/ml at room temperature following shown below order of actions: • 1. 30 mg of the compound of Formula 2 was placed in the glass vial together with small magnet. • 2. 1.5 ml of 1% methylcellulose was added by circular (swirled) movement very slow. The entire surface of the vial was gently covered by the solvent and powder was not allowed to float above the liquid. • 3. The resulting suspension was stirred at the lowest possible speed up to 48 hours at room temperature. • 4. Intermediate Formula 2 stock solution at 10 mg/ml concentration was prepared by diluting 20 mg/ml stock solution 1:1 (v/v) with equal amount of DDW. DDW was added to the Formula 2 stock solution. The obtained suspension was stirred at the lowest possible speed for another hour at room temperature. • 5. Formula 2 working solution at 3 mg/ml was prepared by diluting intermediate stock solution (v/v) with DDW accordingly. The working suspension of Formula 2 was stirred at the low speed (˜80-100 rpm) for 30 minutes to 1 hour prior to use in animal experiments.\nEight experimental groups with 5 female 6-7 weeks old C57BL/6J mice each and one control group non treated (naïve) mice were used for the experiment. Mice were administered with daily application of the working suspension of the compound of Formula 2, prepared as described hereinabove, at 5, 10 and 15 mg/kg by intraperitoneal injection (IP) or at 10, 20 and 30 mg/kg by oral gavage (PO). […] Mice from all groups were euthanized with isoflurane 24 hours post last dose administration. Sampling for whole blood counts (WBC) and white blood differentiation: 200 μl of whole blood were collected into EDTA tubes (Greiner MiniCollect K3EDTA tubes). For comprehensive metabolic panel the rest of the whole blood (300-400 μl) was collected for the serum preparation. All blood tests were conducted in American Medical Labs, Herzeliah, Israel. Liver, spleen, lungs, heart and kidneys were collected from each mouse placed to vials with 4% buffered formalin following paraffin embedding and sectioning. Sections from each organ of each animal were stained with H&E and histological evaluation of the tissue was performed."}, "[3]": {"conditions": "5, 10, 15 mg/kg IP or 10, 20, 30 mg/kg PO, daily"}}, "data": [{"smiles": "COC(=O)c1ccc(COc2c(C=C3C(=O)NC(=O)NC3=O)cccc2C(C)(C)C)cc1", "note": "[Formula 2, methyl 4-((2-(tert-butyl)-6-((2,4,6-trioxotetrahydropyrimidin-5(2H)-ylidene)methyl)phenoxy)methyl) benzoate]", "values": [{"measurement": "Histological score of joints", "setting": "[1]; 15 mg/kg IP q3w", "value": "significantly reduced"}, {"measurement": "fore and hind limb thickness", "setting": "[1]; 15 mg/kg IP q3w, day 43", "value": "significantly reduced"}, {"measurement": "CIA score", "setting": "[1]; FIG. 23 legend: 15 mg/kg SC", "value": "therapeutic effect"}, {"measurement": "histological evaluation of talus and calcaneum joint sections", "setting": "[1]; representative sections, treated mouse (FIG. 25B)", "value": "No cartilage and bone and erosion and profuse infiltration of inflammatory cells are present"}, {"measurement": "microstructure of lungs, heart, liver, spleen and kidney tissues", "setting": "[2]; 3 doses IP", "value": "no effect"}, {"measurement": "microstructure of lungs, heart, liver, spleen and kidney tissues", "setting": "[2]; 3 doses PO", "value": "no effect"}, {"measurement": "blood levels of calcium, phosphorus, sodium, potassium, chloride and hemolytic index", "setting": "[2]; 3 doses PO or 3 doses IP, n=5", "value": "no effect"}, {"measurement": "blood levels of creatinine, urea, total protein, albumin, globulin, glucose", "setting": "[2]; 3 doses PO or 3 doses IP, n=5", "value": "no effect"}, {"measurement": "blood levels of total billirubin, alkaline phosphatase, SGOT, SGPT and cholesterol", "setting": "[2]; 3 doses PO or 3 doses IP, n=5", "value": "no effect"}, {"measurement": "different subtypes of red blood cells, platelets and hematocrit", "setting": "[2]; 3 doses PO or 3 doses IP, n=5", "value": "no effect"}, {"measurement": "different subtypes of white blood cells", "setting": "[2]; 3 doses PO or 3 doses IP, n=5", "value": "no effect"}, {"measurement": "tested metabolic values", "setting": "[2]; [3]", "value": "in normal range"}, {"measurement": "whole blood counts and white cells differentiation", "setting": "[2]; [3]", "value": "no significant changes"}, {"measurement": "tissues morphology, microscopic evaluation", "setting": "[2]; liver, spleen, lungs, heart, kidneys, IP and PO", "value": "no changes"}]}]}
